Data as given in article PMC10818931, “In Vitro Evaluation of Drug–Drug Interaction Potential of Epetraborole, a Novel Bacterial Leucyl-tRNA Synthetase Inhibitor” (Pharmaceuticals, 2024).
pEC50, pIC50: −log10 of the molar value. Like-named read-outs stand apart in the source and are kept apart here.

Key:
[1] = system: human hepatocytes; experiment: Cytotoxicity in hepatocytes; details: EBO at 100 µM, M3 at 250 µM
Protocol: (§1) The induction potential of EBO and M3 on CYP1A2, CYP2B6, and 3A4 was evaluated by incubating the test articles with plated human hepatocytes from 3 individual donors (GKJ, ZEY, WKF) in triplicate according to WuXi AppTec (Cranbury, NJ, USA) SOP.

[2] = system: CYP1A2; experiment: CYP mRNA induction in plated human hepatocytes (qPCR); details: for Apparent Emax: CYP1A2 mRNA, EBO 0.3–100 µM, M3 1–250 µM
Protocol: as §1
(§2) At the end of incubation, the RNA of human hepatocytes was isolated and the mRNA expression levels of CYP 1A2, 2B6, and 3A4 were evaluated by using real-time polymerase chain reaction (qPCR) after being reverse-transcribed (RT) to cDNA following manufacturer’s instruction (thermos Fisher Scientific (Waltham, MA, USA). On the last dosing day with EBO or M3, incubation samples were extracted in triplicate by the addition of ice-cold quench solutions at 0, 0.5, 1, 2, 4, 6, and 24 h after dosing and the extracted samples were analyzed using LC-MS/MS to determine the EBO or M3 concentration in each sample.

[3] = system: CYP2B6; experiment: as above; details: for Apparent Emax: CYP2B6 mRNA, EBO 0.3–100 µM, M3 1–250 µM
Protocol: as §1, §2

[4] = system: CYP3A4; experiment: as above; details: for Apparent Emax: EBO 0.3–100 µM, M3 1–250 µM; for EC50 at 2 days: human
Protocol: as §1, §2

[5] = system: CYP1A2; experiment: CYP inhibition (direct and metabolism-dependent) in human hepatic microsomes; assay type: in vitro ADME; details: for MDI IC50 Fold Change: metabolism-dependent inhibition; for pIC50: pH 7.4, EBO 0.03–100 μM, M3 1–1000 µM, read-out: as an Inhibitor IC50
Protocol: (§3) The direct inhibitory potential of EBO on cytochrome P450 activities O-deethylase (CYP1A2), bupropion hydroxylase (CYP2B6), amodiaquine N-deethylase (CYP2C8), diclofenac 4′-hydroxylase (CYP2C9), S-mephenytoin 4′-hydroxylase (CYP2C19), bufuralol 1′-hydroxylase (CYP2D6), chlorzoxazone 6-hydroxylase (CYP2E1), testosterone 6β-hydroxylase (CYP3A), and midazolam 1′-hydroxylase (CYP3A) was assessed in vitro using human hepatic microsomes according to Covance Laboratory (Madison, WI, USA) SOP. A single substrate concentration was used, approximating the concentration of substrate that gives half the maximum reaction velocity (Km) for human hepatic microsomes for each cytochrome P450 activity. […] All sample and control incubations were performed in triplicate and were analyzed by LC-MS/MS. Incubation mixtures contained microsomal protein and substrate in a 0.1 M potassium phosphate buffer (pH 7.4) containing 1 mM EDTA (assay buffer). […] Incubations were terminated by the addition of 100 µL of an internal standard solution followed by vortex mixing. Protein was removed by centrifugation at 1500× g for 5 min at 4 °C, and supernatants were transferred to a separate plate and stored at 4 °C prior to LC-MS/MS analysis. The analyte for each activity assay was quantitated by comparison to a linear curve of an authentic standard prepared using human microsomal protein. […] Incubations were performed at substrate concentrations approximating the average Km values. […] For determination of control activities, NADPH was added after the addition of each substrate. Samples were then processed as previously described. […] Two sets of duplicate incubations were prepared (cofactor preincubation [50 µL] and control preincubation [50 µL]) with each concentration of M3. All incubations contained a final microsomal protein concentration of 0.1 mg/mL. In this study, M3 and microsomes were preincubated with cofactor for 20 min prior to initiation of reaction by addition of probe substrate. The corresponding control incubations were designed to provide a preincubation without cofactor while incorporating the 20 min preincubation of M3 with microsomes to ensure consistent equilibration of M3 in both control and cofactor preincubations. The control preincubations were therefore performed for 20 min with M3, microsomes, and probe substrate, and the reaction was initiated by the addition of a cofactor solution. […] Incubations without cofactor (at the highest concentration of M3) were performed to determine any cofactor-independent substrate metabolism formation. Probe substrate concentrations were determined by LC/MS/MS methods.

[6] = target: T1, CYP2C8 (Homo sapiens, UniProt P10632); experiment: as above; assay type: in vitro ADME; details: for MDI IC50 Fold Change: metabolism-dependent inhibition; for pIC50: read-out: as an Inhibitor IC50
T1 construct: tissue CellzDirect; XenoTech LLC; host or cells: pooled human liver microsomes
T1 sequence (P10632 1-490): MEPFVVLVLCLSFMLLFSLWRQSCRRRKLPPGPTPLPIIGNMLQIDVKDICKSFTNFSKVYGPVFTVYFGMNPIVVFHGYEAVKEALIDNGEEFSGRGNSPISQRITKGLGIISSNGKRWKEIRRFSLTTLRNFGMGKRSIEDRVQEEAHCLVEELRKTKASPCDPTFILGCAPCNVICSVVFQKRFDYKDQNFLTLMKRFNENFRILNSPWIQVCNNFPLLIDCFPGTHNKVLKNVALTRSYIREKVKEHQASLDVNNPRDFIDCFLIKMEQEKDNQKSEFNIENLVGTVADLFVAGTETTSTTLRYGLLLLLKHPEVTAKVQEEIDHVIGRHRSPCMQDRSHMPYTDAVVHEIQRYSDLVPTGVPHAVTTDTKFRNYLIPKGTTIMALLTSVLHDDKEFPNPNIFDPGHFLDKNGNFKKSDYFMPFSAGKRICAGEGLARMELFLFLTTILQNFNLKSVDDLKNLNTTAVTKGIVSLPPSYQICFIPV
Protocol: as §3

[7] = target: T2, CYP2C9 (Homo sapiens, UniProt P11712); experiment: as above; assay type: in vitro ADME; details: for MDI IC50 Fold Change: metabolism-dependent inhibition; for pIC50: read-out: as an Inhibitor IC50
T2 construct: tissue CellzDirect; XenoTech LLC; host or cells: pooled human liver microsomes
T2 sequence (P11712 whole entry): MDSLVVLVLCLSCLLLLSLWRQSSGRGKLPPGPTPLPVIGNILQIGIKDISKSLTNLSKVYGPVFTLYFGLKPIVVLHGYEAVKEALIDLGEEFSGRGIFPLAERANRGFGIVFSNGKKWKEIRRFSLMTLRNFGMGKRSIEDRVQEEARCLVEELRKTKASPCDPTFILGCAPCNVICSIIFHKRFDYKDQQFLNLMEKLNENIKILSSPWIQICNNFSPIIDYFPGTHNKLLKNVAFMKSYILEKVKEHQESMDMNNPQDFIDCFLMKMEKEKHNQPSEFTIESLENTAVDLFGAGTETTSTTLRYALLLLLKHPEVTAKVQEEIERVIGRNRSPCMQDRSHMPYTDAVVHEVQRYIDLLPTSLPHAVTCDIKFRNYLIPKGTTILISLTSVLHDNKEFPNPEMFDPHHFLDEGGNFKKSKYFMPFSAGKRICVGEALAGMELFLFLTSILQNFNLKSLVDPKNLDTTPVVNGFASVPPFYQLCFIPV
Protocol: as §3

[8] = target: T3, CYP2D6 (Homo sapiens, UniProt P10635); experiment: as above; assay type: in vitro ADME; details: for MDI IC50 Fold Change: metabolism-dependent inhibition; for pIC50: read-out: as an Inhibitor IC50
T3 construct: Characterized, pooled, human hepatic microsomes from 15 individuals; tissue CellzDirect (Durham, NC, USA) or XenoTech LLC (Lenexa, KS, USA); host or cells: pooled human liver microsomes (15 donors)
T3 sequence (P10635 whole entry): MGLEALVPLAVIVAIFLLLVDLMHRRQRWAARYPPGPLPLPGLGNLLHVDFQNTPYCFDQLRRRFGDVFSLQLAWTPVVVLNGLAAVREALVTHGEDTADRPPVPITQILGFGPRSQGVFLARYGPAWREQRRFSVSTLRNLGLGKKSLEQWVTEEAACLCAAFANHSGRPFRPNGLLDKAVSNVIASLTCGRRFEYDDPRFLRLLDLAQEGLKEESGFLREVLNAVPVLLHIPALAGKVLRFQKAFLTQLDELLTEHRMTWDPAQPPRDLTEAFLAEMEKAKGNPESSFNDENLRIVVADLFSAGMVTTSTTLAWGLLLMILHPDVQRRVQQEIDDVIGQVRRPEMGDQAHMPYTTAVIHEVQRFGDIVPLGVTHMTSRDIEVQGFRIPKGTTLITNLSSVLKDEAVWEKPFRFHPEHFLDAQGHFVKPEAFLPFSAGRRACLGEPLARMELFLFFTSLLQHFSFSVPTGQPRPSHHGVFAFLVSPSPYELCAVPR
Protocol: as §3

[9] = system: CYP3A4/5; experiment: as above; assay type: in vitro ADME; details: for MDI IC50 Fold Change: metabolism-dependent inhibition; for pIC50: read-out: as an Inhibitor IC50
Protocol: as §3

[10] = system: CYP3A4; experiment: as above; assay type: in vitro ADME; details: for MDI IC50 Fold Change / pIC50: CYP3A4 (Testosterone); for MDI IC50 Fold Change: metabolism-dependent inhibition; for pIC50: human, read-out: as an Inhibitor IC50
Protocol: as §3

[11] = at 100 µM, EBO 2 out of 3 donors, M3 1 out of 3 donors

## NC[C@H]1OB(O)c2c(OCCCO)cccc21 [EBO, Epetraborole]
[1]
  Cytotoxicity (>20%): did not induce cytotoxicity (>20%)
[2]; donor one
  Apparent Emax: <2 Fold
[2]; donor three
  Apparent Emax: <2 Fold
[2]; donor two
  Apparent Emax: <2 Fold
[2]; hepatocytes
  Inducer of CYP1A2 mRNA (in words): not an inducer
[3]; donor one
  Apparent Emax: <2 Fold
[3]; donor three
  Apparent Emax: <2 Fold
[3]; donor two
  Apparent Emax: >2.18 Fold
[3]; at 100 µM, 1 out of 3 donors
  CYP2B6 mRNA expression induction: 2.18 fold
[3]; hepatocytes
  Inducer of CYP2B6 (in words): weak inducer
[3]; human, plated human hepatocytes
  EC50 at 2 days: > 100 µM
[4]; CYP3A4 mRNA, donor one
  Apparent Emax: >2.98 Fold
[4]; CYP3A4 mRNA, donor three
  Apparent Emax: <2 Fold
[4]; CYP3A4 mRNA, donor two
  Apparent Emax: >2.93 Fold
[4]; [11]
  CYP3A4 mRNA expression induction: ~ 3 fold
[4]; hepatocytes
  Inducer of CYP3A4 (in words): weak inducer
[4]; plated human hepatocytes
  EC50 at 2 days: > 100 µM
[4]; read-out: Apparent EC50, CYP3A4 mRNA, donor one
  pEC50: < 4.00
[5]; CYP1A2
  MDI IC50 Fold Change: No
[5]; human, human hepatic microsomes, pH 7.4, highest concentration tested (100 µM), read-out: Decrease of CYP1A2 activity (inhibition)
  inhibition at 100 µM: ~30%
[5]; human, human liver microsomes, CYP1A2
  pIC50: < 4.00
[5]; preincubation with EBO in the absence of NADPH
  Percentage of CYP1A2 activity remaining: 72.4%
[5]; preincubation with EBO in the presence of NADPH
  Percentage of CYP1A2 activity remaining: 81.7%
[6]
  MDI IC50 Fold Change: No
  pIC50: < 4.00
[7]
  MDI IC50 Fold Change: No
  pIC50: < 4.00
[8]
  MDI IC50 Fold Change: No
  pIC50: < 4.00
[9]; CYP3A4/5 (Midazolam)
  MDI IC50 Fold Change: No
[9]; human, human hepatic (liver) microsomes, pH 7.4, probe midazolam (1′-hydroxylation), CYP3A4/5 (Midazolam)
  pIC50: < 4.00
[10]
  MDI IC50 Fold Change: No
[10]; human hepatic (liver) microsomes, pH 7.4, probe testosterone (6β-hydroxylation)
  pIC50: < 4.00

## NC[C@H]1OB(O)c2c(OCCC(=O)O)cccc21 [M3]
[1]
  Cytotoxicity (>20%): did not induce cytotoxicity (>20%)
[2]; donor one
  Apparent Emax: <2 Fold
[2]; donor three
  Apparent Emax: <2 Fold
[2]; donor two
  Apparent Emax: <2 Fold
[3]; donor one
  Apparent Emax: <2 Fold
[3]; donor three
  Apparent Emax: <2 Fold
[3]; donor two
  Apparent Emax: <2 Fold
[4]; CYP3A4 mRNA, donor one
  Apparent Emax: 2.16 Fold
[4]; CYP3A4 mRNA, donor three
  Apparent Emax: <2 Fold
[4]; CYP3A4 mRNA, donor two
  Apparent Emax: <2 Fold
[4]; [11]
  CYP3A4 mRNA expression induction: 2.19 fold
[4]; at 250 µM, 1 out of 3 donors
  CYP3A4 mRNA expression induction: 2.13 fold
[4]
  EC50 at 2 days: 32.4 µM
[5]; CYP1A2
  Direct or time-dependent inhibitory activity (in words): No direct or time-dependent inhibitory activity
  MDI IC50 Fold Change: No
[5]; human, microsomes, CYP1A2
  pIC50: < 3.00
[6]
  Direct or time-dependent inhibitory activity (in words): No direct or time-dependent inhibitory activity
  MDI IC50 Fold Change: No
  pIC50: < 3.00
[7]
  Direct or time-dependent inhibitory activity (in words): No direct or time-dependent inhibitory activity
  MDI IC50 Fold Change: No
  pIC50: < 3.00
[8]
  Direct or time-dependent inhibitory activity (in words): No direct or time-dependent inhibitory activity
  MDI IC50 Fold Change: No
  pIC50: < 3.00
[9]; CYP3A4/5 (Atorvastatin)
  MDI IC50 Fold Change: No
  pIC50: < 3.00
[9]; CYP3A4/5 (Midazolam)
  MDI IC50 Fold Change: No
[9]; human, microsomes, pH 7.4, CYP3A4/5 (Midazolam)
  pIC50: < 3.00
[10]; CYP3A4
  Direct or time-dependent inhibitory activity (in words): No direct or time-dependent inhibitory activity
[10]
  MDI IC50 Fold Change: No
[10]; microsomes, pH 7.4
  pIC50: < 3.00
